Patent US5190741A, “Agents for diagnosing and treating melanomas, aromatic halogenated derivatives usable as such agents and their preparation” (Institut National de la Sante et de la Recherche Medicale …, priority 1989, dated 1993)
Where two headings read alike, the source gives them in different places.

Columns and labels:
[1] = LD50 determination, i.v. (Karber and Behrens); details: mouse, in vivo, iv
Excerpt: (§1) The determination of the LD50 is made in the mouse after i.v. injection of the molecules according to the methodology described by Karber and Behrens.
(§2) 6 weeks old OF 1 male mice

[2] = system: 6 weeks old OF 1 male mice; assay: LD50 determination, i.v. (Karber and Behrens); details: mouse, in vivo, iv
Excerpt: as §1, §2

B16 murine melanoma [3] = assay: Autoradiograms, C57 BL6 mice bearing B16; assay type: in vivo, mouse
Protocol: (§3) The autoradiograms are carried out in mice bearing grafted melanomas:
a. C57 BL6 bearing the B16 murine melanoma.
(§4) The animals bearing grafted tumors receive the labelled compounds in the form of the hydrochloride in saline solution (3.7 to 5×10^5 Bq/animal) in a caudal vein. At different time intervals after the administration of the compounds (from 15 minutes to 24 hours) the mice are anesthetized with ether and plunged into liquid nitrogen.
(§5) 30 μm sections, parallel to a sagittal plane, are prepared in a freezing microtome (TS 260, SLEE) according to the protocol described by Ullberg.

[4] = system: Beu melanic human melanoma; assay: Autoradiograms, nu/nu SSCUP nude mice bearing Beu; assay type: in vivo
Protocol: as §3
b. nu/nu SSCUP nudes bearing heterotransplants of melanic (Beu) or amelanic (Dau) human melanomas).
as §4, §5

[5] = Tissue distribution in C57 BL6 mice bearing B16; assay type: in vivo, mouse; details: mouse, iv, 3 umol/animal
Protocol: (§6) The study of the tissue distribution of the ^125 I labelled compounds was performed in mice bearing grafted melanomas (cf. autoradiograms above). […] The animals are sacrificed at different time intervals of 1 to 24 hours after the injection. The blood is collected and the principal organs are excised. Aliquots are weighed and the radioactivity of the samples is measured in a […] 1191 counter (analytic tracer). The counting yield for iodine 125 is 60%. The results are expressed: as a percentage of the injected dose bound per g of tissue (% ID/g); in the form of the ratios [formula] This ratio reflects more precisely the selectivity of a molecule for an organ (tables 2, 4, 6, 8, 10 and 12).

B16 murine melanoma [6] = assay: Tissue distribution in C57 BL6 mice bearing B16; assay type: in vivo, mouse; details: mouse, in vivo
Protocol: as §6

B16 melanoma = assay: Scintillation imaging, C57 BL6 mice bearing B16; assay type: in vivo, mouse; details: ^123 I label
Excerpt: (§7) The mice bearing grafted tumors are anesthetized by the i.p. injection of sodium pentobarbital 1/5 and immobilized under a scintillation camera (Gammatome II, CGR) equipped with a pinhole 3-360 collimator, sensitivity 3.2 10^-4.
C57 BL6 bearing B16 melanomas at different stages of development.
(§8) The scanning observations have also been carried out after the injection of B into the following mice:
C57 BL6 bearing the B16 melanoma

[7] = system: Beu melanic human melanoma; assay: Scintillation imaging, nu/nu SSCUP nude mice bearing Beu; assay type: in vivo; details: ^123 I label
Excerpt: as §7
nu/nu SSCUP nudes bearing human melanomas Beu and Dau.
as §8
nu/nu SSCUP nudes bearing the Beu heterotransplant.

[8] = intestine, read-out: intestine % ID/g
[9] = kidney, read-out: kidney % ID/g
[10] = muscle, read-out: muscle % ID/g
[11] = pancreas, read-out: pancreas % ID/g
[12] = plasma, read-out: plasma % ID/g
[13] = spleen, read-out: spleen % ID/g
[14] = stomach, read-out: stomach % ID/g
[15] = submaxillary glands, read-out: submaxillary glands % ID/g

CCN(CC)CCNC(=O)c1ccc(I)cc1 [Derivative A, N-(2-diethylaminoethyl) 4-iodo benzamide]
LD50 [1]: 125 mg/kg
LD 0 [2]: 75 mg/kg
LD 100 [2]: 150 mg/kg
darkening of the film at the tumor (B16 murine melanoma [3]; 1 to 4 h after i.v.): considerable and inhomogeneous darkening of the film
tumor visibility on autoradiogram (B16 murine melanoma [3]; 24 h after i.v.): still visible
darkening of the film at the tumor ([4]; 1 to 4 h after i.v.): Identical images
tumor visibility on autoradiogram ([4]; 24 h after i.v.): we can no longer see darkening of the film
tissue uptake at 1 h ([5]; blood, read-out: blood % ID/g): 1.04 %ID/g
tissue uptake at 2 h ([5]; blood, read-out: blood % ID/g): 0.74 %ID/g
tissue uptake at 4 h ([5]; blood, read-out: blood % ID/g): 0.54 %ID/g
tissue uptake at 6 h ([5]; blood, 6 h, read-out: blood % ID/g): 0.21 %ID/g
tissue uptake at 24 h ([5]; blood, read-out: blood % ID/g): 0.022 %ID/g
tissue uptake at 8 h ([5]; blood, 8 h, read-out: blood % ID/g): 0.34 %ID/g
tissue uptake at 12 h ([5]; blood, read-out: blood % ID/g): 0.09 %ID/g
tissue uptake at 1 h ([5]; brain, read-out: brain % ID/g): 2.67 %ID/g
tissue uptake at 2 h ([5]; brain, read-out: brain % ID/g): 1.4 %ID/g
tissue uptake at 4 h ([5]; brain, read-out: brain % ID/g): 0.7 %ID/g
tissue uptake at 6 h ([5]; brain, 6 h, read-out: brain % ID/g): 0.32 %ID/g
tissue uptake at 24 h ([5]; brain, read-out: brain % ID/g): 0.005 %ID/g
tissue uptake at 8 h ([5]; brain, 8 h, read-out: brain % ID/g): 0.18 %ID/g
tissue uptake at 12 h ([5]; brain, read-out: brain % ID/g): 0.04 %ID/g
tissue uptake at 1 h ([5]; eye, read-out: eye % ID/g): 13.6 %ID/g
tissue uptake at 2 h ([5]; eye, read-out: eye % ID/g): 13 %ID/g
tissue uptake at 4 h ([5]; eye, read-out: eye % ID/g): 12.4 %ID/g
tissue uptake at 6 h ([5]; eye, 6 h, read-out: eye % ID/g): 12.1 %ID/g
tissue uptake at 24 h ([5]; eye, read-out: eye % ID/g): 6.65 %ID/g
tissue uptake at 8 h ([5]; eye, 8 h, read-out: eye % ID/g): 8.07 %ID/g
tissue uptake at 12 h ([5]; eye, read-out: eye % ID/g): 8.49 %ID/g
tissue uptake at 1 h [5, 8]: 5.22 %ID/g
tissue uptake at 2 h [5, 8]: 3.94 %ID/g
tissue uptake at 4 h [5, 8]: 2.8 %ID/g
tissue uptake at 6 h ([5]; intestine, 6 h, read-out: intestine % ID/g): 0.75 %ID/g
tissue uptake at 8 h ([5]; intestine, 8 h, read-out: intestine % ID/g): 0.71 %ID/g
tissue uptake at 12 h [5, 8]: 0.14 %ID/g
tissue uptake at 24 h [5, 8]: 0.02 %ID/g
tissue uptake at 1 h [5, 9]: 8.56 %ID/g
tissue uptake at 2 h [5, 9]: 5.93 %ID/g
tissue uptake at 4 h [5, 9]: 3.67 %ID/g
tissue uptake at 6 h ([5]; kidney, 6 h, read-out: kidney % ID/g): 1.1 %ID/g
tissue uptake at 24 h [5, 9]: 0.07 %ID/g
tissue uptake at 8 h ([5]; kidney, 8 h, read-out: kidney % ID/g): 0.84 %ID/g
tissue uptake at 12 h [5, 9]: 0.19 %ID/g
tissue uptake at 1 h ([5]; liver, read-out: liver % ID/g): 6.04 %ID/g
tissue uptake at 2 h ([5]; liver, read-out: liver % ID/g): 4.02 %ID/g
tissue uptake at 4 h ([5]; liver, read-out: liver % ID/g): 2.46 %ID/g
tissue uptake at 6 h ([5]; liver, 6 h, read-out: liver % ID/g): 0.95 %ID/g
tissue uptake at 24 h ([5]; liver, read-out: liver % ID/g): 0.16 %ID/g
tissue uptake at 8 h ([5]; liver, 8 h, read-out: liver % ID/g): 0.8 %ID/g
tissue uptake at 12 h ([5]; liver, read-out: liver % ID/g): 0.25 %ID/g
tissue uptake at 1 h ([5]; lung, read-out: lungs % ID/g): 11 %ID/g
tissue uptake at 2 h ([5]; lung, read-out: lungs % ID/g): 6.12 %ID/g
tissue uptake at 4 h ([5]; lung, read-out: lungs % ID/g): 4.29 %ID/g
tissue uptake at 6 h ([5]; lung, 6 h, read-out: lungs % ID/g): 1.99 %ID/g
tissue uptake at 8 h ([5]; lung, 8 h, read-out: lungs % ID/g): 1.11 %ID/g
tissue uptake at 12 h ([5]; lung, read-out: lungs % ID/g): 0.2 %ID/g
tissue uptake at 24 h ([5]; lung, read-out: lungs % ID/g): 0.05 %ID/g
tissue uptake at 6 h ([5]; lung, as from the 6th hour, mice bearing melanic melanomas, read-out: pulmonary binding): < 1 %ID/g
tissue uptake at 1 h [5, 10]: 1.55 %ID/g
tissue uptake at 2 h [5, 10]: 1.13 %ID/g
tissue uptake at 4 h [5, 10]: 0.66 %ID/g
tissue uptake at 6 h ([5]; muscle, 6 h, read-out: muscle % ID/g): 0.19 %ID/g
tissue uptake at 24 h [5, 10]: 0.009 %ID/g
tissue uptake at 8 h ([5]; muscle, 8 h, read-out: muscle % ID/g): 0.14 %ID/g
tissue uptake at 12 h [5, 10]: 0.03 %ID/g
tissue uptake at 1 h [5, 11]: 5.34 %ID/g
tissue uptake at 2 h [5, 11]: 3.42 %ID/g
tissue uptake at 4 h [5, 11]: 2.01 %ID/g
tissue uptake at 6 h ([5]; pancreas, 6 h, read-out: pancreas % ID/g): 0.55 %ID/g
tissue uptake at 8 h ([5]; pancreas, 8 h, read-out: pancreas % ID/g): 0.41 %ID/g
tissue uptake at 12 h [5, 11]: 0.13 %ID/g
tissue uptake at 24 h [5, 11]: 0.04 %ID/g
tissue uptake at 1 h [5, 12]: 0.82 %ID/g
tissue uptake at 2 h [5, 12]: 0.55 %ID/g
tissue uptake at 4 h [5, 12]: 0.45 %ID/g
tissue uptake at 6 h ([5]; plasma, 6 h, read-out: plasma % ID/g): 0.21 %ID/g
tissue uptake at 24 h [5, 12]: 0.024 %ID/g
tissue uptake at 8 h ([5]; plasma, 8 h, read-out: plasma % ID/g): 0.38 %ID/g
tissue uptake at 12 h [5, 12]: 0.11 %ID/g
tissue uptake at 1 h [5, 13]: 5.91 %ID/g
tissue uptake at 2 h [5, 13]: 2.94 %ID/g
tissue uptake at 4 h [5, 13]: 1.36 %ID/g
tissue uptake at 6 h ([5]; spleen, 6 h, read-out: spleen % ID/g): 0.56 %ID/g
tissue uptake at 8 h ([5]; spleen, 8 h, read-out: spleen % ID/g): 0.46 %ID/g
tissue uptake at 12 h [5, 13]: 0.16 %ID/g
tissue uptake at 24 h [5, 13]: 0.02 %ID/g
tissue uptake at 1 h [5, 14]: 6.03 %ID/g
tissue uptake at 2 h [5, 14]: 3.87 %ID/g
tissue uptake at 4 h [5, 14]: 2.35 %ID/g
tissue uptake at 6 h ([5]; stomach, 6 h, read-out: stomach % ID/g): 1.14 %ID/g
tissue uptake at 8 h ([5]; stomach, 8 h, read-out: stomach % ID/g): 1.65 %ID/g
tissue uptake at 12 h [5, 14]: 0.19 %ID/g
tissue uptake at 24 h [5, 14]: 0.07 %ID/g
tissue uptake at 1 h [5, 15]: 6.06 %ID/g
tissue uptake at 2 h [5, 15]: 3.6 %ID/g
tissue uptake at 4 h [5, 15]: 3.68 %ID/g
tissue uptake at 6 h ([5]; submaxillary glands, 6 h, read-out: submaxillary glands % ID/g): 1.12 %ID/g
tissue uptake at 8 h ([5]; submaxillary glands, 8 h, read-out: submaxillary glands % ID/g): 0.98 %ID/g
tissue uptake at 12 h [5, 15]: 0.44 %ID/g
tissue uptake at 24 h [5, 15]: 0.09 %ID/g
tissue uptake at 1 h ([5]; tumor, read-out: tumor % ID/g): 6.75 %ID/g
tissue uptake at 2 h ([5]; tumor, read-out: tumor % ID/g): 6.04 %ID/g
tissue uptake at 4 h ([5]; tumor, read-out: tumor % ID/g): 4.82 %ID/g
tissue uptake at 6 h ([5]; tumor, 6 h, read-out: tumor % ID/g): 3.53 %ID/g
tissue uptake at 24 h ([5]; tumor, read-out: tumor % ID/g): 0.79 %ID/g
tissue uptake at 8 h ([5]; tumor, up to 8 hours, B16, read-out: intratumoral concentration): > 1 %ID/g
tissue uptake at 8 h ([5]; tumor, 8 h, read-out: tumor % ID/g): 3.42 %ID/g
tissue uptake at 12 h ([5]; tumor, read-out: tumor % ID/g): 1.01 %ID/g
marker of the B16 murine melanoma (B16 murine melanoma [6]): markers of the B16 murine melanoma
images compared with ^125 I-A (B16 melanoma): identical images
images compared with ^125 I-A [7]: identical images
